Results on seven molecules are retold here after patent publication US10730864B2, “RAD51 inhibitors and uses thereof” (THE REGENTS OF THE UNIVERSITY OF CALIFORNIA, priority 2015, dated 2020).

The subject of assay [1] is triple-negative human breast cancer cell line MDA-MB-468. Description: XTT cell killing / growth inhibition assay, MDA-MB-468. The class given is cell-based. The protocol:
(§1) Standard XTT assays with a four-day drug treatment procedure were performed to measure the dose dependent cytotoxicity of IBR analogs in cultured cells. In brief, cells were plated on 96-well dishes one day before the drug treatment, followed by drug treatment on day 2 and XTT assay on day 6 after drug addition by using a commercial cell proliferation kit (Roche Scientific) following the instructions.
(§2) Triplicate sets were measured and compiled for final data presentation.
To test the possibility of inhibiting triple-negative breast cancer, the newly synthesized IBR2 analogues IBR101-124 were screened of their growth inhibition abilities using an XTT assay.
A general note: Formazan colour is commonly taken as a measure of viable cells.

Assay [2] relates to human Osteosarcoma cell line U2OS. Description: XTT growth inhibition assay, U2OS. In kind it is cell-based. The protocol:
as §1, §2
(§3) The growth inhibition of a panel of cancer cell lines was tested against IBR120 using an XTT assay. These cell lines included human Chronic Myelogenous Leukemia cell line K562, human breast cancer cell lines MCF7, MDA-MB-231, MDA-MB-361, MDA-MB-435, MDA-MB-468, Hs578-T, and T47D, human Osteosarcoma cell line U2OS, human Glioblastoma cell line T98G, human Cervical Cancer cell line HeLa, as well as human mammary gland normal epithelial cell line MCF10A as normal control.

Assay [3] relates to human breast cancer cell line T47D. Description: XTT growth inhibition assay, T47D. The class given is cell-based. The following applies: Mammary Gland Ductal Carcinoma. The protocol: as §1, §2, §3
Assay [4] relates to human Glioblastoma cell line T98G. Description: XTT growth inhibition assay, T98G. The note with it: Glioblastoma Multiforme. In kind it is cell-based. As for the experimental part: as §1, §2, §3
In assay [5] the test system is human mammary gland normal epithelial cell line MCF10A. Description: XTT growth inhibition assay, MCF10A normal control. The class given is cell-based. The note with it: MCF-10A. The protocol:
as §1, §2, §3

Assay [6] concerns human breast cancer cell line MDA-MB-231. Description: XTT growth inhibition assay, MDA-MB-231. The following applies: MDA-MB-231, Mammary Gland Adenocarcinoma. The class given is cell-based. As for the experimental part:
as §1, §2, §3

Assay [7] concerns panel of cancer cell lines. Description: XTT growth inhibition assay, panel of cancer cell lines (summary). In kind it is cell-based, human. The protocol: as §1, §2, §3
Assay [8] relates to human Cervical Cancer cell line HeLa. Description: XTT growth inhibition assay, HeLa. In kind it is cell-based. The following applies: Cervix Adenocarcinoma. The protocol: as §1, §2, §3
Assay [9] has as its system human breast cancer cell line Hs578-T. Description: XTT growth inhibition assay, Hs578-T. The class given is cell-based. The note with it: Hs-578T, Mammary Gland Carcinoma. The protocol: as §1, §2, §3
Assay [10] has as its system human breast cancer cell line MDA-MB-435. Description: XTT growth inhibition assay, MDA-MB-435. In kind it is cell-based. The note with it: MDA-MB-435, Melanoma/Mammary Gland Ductal Carcinoma. As for the experimental part:
as §1, §2, §3

The next assay addresses T1, RAD51 (Homo sapiens, UniProt Q06609).
T1 sequence (Q06609 1-339): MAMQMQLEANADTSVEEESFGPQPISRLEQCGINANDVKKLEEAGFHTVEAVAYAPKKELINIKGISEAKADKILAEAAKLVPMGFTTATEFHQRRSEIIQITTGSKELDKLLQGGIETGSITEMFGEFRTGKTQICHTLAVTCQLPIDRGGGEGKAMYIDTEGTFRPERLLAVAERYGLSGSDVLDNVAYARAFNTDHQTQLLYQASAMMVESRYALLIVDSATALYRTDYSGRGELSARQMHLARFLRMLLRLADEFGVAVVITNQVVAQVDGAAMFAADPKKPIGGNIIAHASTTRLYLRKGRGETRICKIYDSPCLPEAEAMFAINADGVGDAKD
Description: Multimer formation assay (gel filtration). The class given is biochemical. The following applies: RAD51:IBR120 1:10 molar ratio, gel filtration profile. As for the experimental part:
A mixture of RAD51 (3.2 μg) and IBR120 (1:10 molar ratio) was incubated for 15 min at 37° C., supplemented with buffer (50 mM triethanolamine-HCl [pH7.5], 0.5 mM Mg(OAc)2, 1 mM DTT, 2 mM ATP and 100 μg/ml BSA, total volume 20 μl) and incubated for 15 min. The mixture was loaded onto a 2.4 ml Superdex 200 PC 3.2/30 column (Pharmacia) equilibrated with the same buffer as previously described (Zhu et al., 2013, EMBO Mol. Med. 5:1-13; Pierce et al., 1999, Genes Dev. 13:2633-2638). Fractions (50 μl) were collected and 0.5 μl of each fraction was blotted onto PVDF membrane. RAD51 was detected using anti-RAD51 antibody (mAb 14B4, GeneTex)
On the RAD51 core domain, a hydrophobic pocket formed between β-strand B3 and α-helix A4 of RAD51 is critical for RAD51 multimerization (Pellegrini et al., 2002, Nature 420:287-293). It was hypothesized that IBR compounds should be able to inhibit RAD51 multimerization. In order to test this hypothesis, the gel filtration profile of RAD51 multimerization in the presence of IBR120 or vehicle (DMSO) alone were compared.
Background: Size exclusion chromatography separates by hydrodynamic size, large species first.

Assay [11] has as its system human breast cancer cell line MDA-MB-361. Description: XTT growth inhibition assay, MDA-MB-361. In kind it is cell-based. The note with it: MDA-MB-361, Mammary Gland Adenocarcinoma. The protocol:
as §1, §2, §3

Assay [12] relates to HR repair in HeLa-DR-GFP cells. Description: HR assay (I-SceI inducible gene conversion, DR-GFP). The class given is cell-based, human. The note with it: 10 or 20 μM, 24 hours, GFP positive cells by flow cytometry. As for the experimental part: HR frequency was measured by two-colour fluorescence flow cytometric analysis using HeLa-DR-GFP cells. Fifty thousand events were analyzed for each experiment. Cells were treated with DMSO (mock), 10 or 20 μM of IBR2 or IBR120 as indicated for 24 hours after transient transfection with I-SceI expression vector pCABSce for 24 hours. HR frequencies were indicated by GFP positive cell percentages. […] DMSO. […] DMSO. […] DMSO. […] DMSO. […] GFP positive cell percentages by indicated treatments obtained from three independent experiments are summarized as means±SD.
Using previously described methods (Zhu et al., 2013, EMBO Mol. Med. 5:1-13; Pierce et al., 1999, Genes Dev. 13:2633-2638), HeLa cells stably expressing DR-GFP were transfected with the I-Sce expression vector pCBASce and treated with compounds or DMSO. Cells were then trypsinized and subjected to flow cytometry.
Inhibition of RAD51 function will lead to failure in HR repair. […] Upon I-SceI expression by transient transfection for 24 hours to induce DSBs, cells were treated with DMSO, 10 or 20 μM of IBR120 or IBR2 for another 24 hours and the GFP positive population resulting from successful recombination was measured by flow cytometry.
On the technique in general: In flow cytometry, cells or beads pass a laser one at a time.

Assay [13] has as its system human Chronic Myelogenous Leukemia cell line K562. Description: XTT growth inhibition assay, K562. In kind it is cell-based. The protocol: as §1, §2, §3
Assay [14] relates to human breast cancer cell line MCF7. Description: XTT growth inhibition assay, MCF7. The class given is cell-based. The following applies: MCF7, Mammary Gland Adenocarcinoma. The protocol:
as §1, §2, §3

Where [15] appears, read: Homo sapiens, 96 h, MDA-MB-468, XTT assay, four-day drug treatment, read-out: IC50.
[16] abbreviates: Homo sapiens, MDA-MB-468, growth inhibition, raw dataset for SAR analysis, read-out: pIC50 (converted).
Where [17] appears, read: MDA-MB-468, XTT assay, four-day drug treatment, read-out: IC50.
[18] abbreviates: growth inhibition, raw dataset for SAR analysis.

Entries after “also recorded” stand apart in the source; their conditions may differ. Read-outs that look alike come from different tables or passages of the source.

Regarding `O=S(=O)(Cc1ccccc1)N1CCc2ccccc2[C@@H]1c1n[nH]c2ccccc12` [IBR117, (R)-1-(1H-Indazol-3-yl)-2-phenylmethanesulfonyl-1,2,3,4-tetrahydro-isoquinoline], the results for the IC50 in [1] (setting [15]) and in assay [1] (setting [16]) were 9.5 µM and 9.55 µM, respectively. Moreover, the “IC50 compared with that of the parental compound IBR2 (in words)” value (shortened to “IC50 compared with that”) in [1] (MDA-MB-468) is reported as “significantly lower”.

As for `O=S(=O)(Cc1ccccc1)N1CCc2ccccc2[C@H]1c1n[nH]c2ccccc12` [IBR118, (S)-1-(1H-Indazol-3-yl)-2-phenylmethanesulfonyl-1,2,3,4-tetrahydro-isoquinoline], the figures for the IC50 in [1] (setting [15]) and in assay [1] (setting [16]) were 14.3 µM and 14.5 µM, respectively. For the same molecule, in [1] (MDA-MB-468), the “IC50 compared with that” value is listed as “slightly lower”.

In the case of `Nc1ncc([C@@H]2c3ccccc3CCN2S(=O)(=O)Cc2ccccc2)s1` [IBR119, 5-((S)-2-Phenylmethanesulfonyl-1,2,3,4-tetrahydro-isoquinolin-1-yl)thiazol-2-ylamine], the results for the IC50 in [1] (setting [15]) and in assay [1] (setting [16]) were greater than 25 µM and no less than 25.1 µM, respectively.

Consider `O=S(=O)(Cc1ccccc1)N1Cc2ccccc2[C@@H]1c1c[nH]c2ccccc12` [IBR120, (R)-3-(2-(benzylsulfonyl)isoindolin-1-yl)-1H-indole], for which the IC50 in assay [2] was 4.7 ± 0.5 µM; in assay [3], 6.3 ± 1.5 µM; in assay [4], 9.5 ± 0.9 µM; in [5], greater than 30 µM; in [1] (setting [15]), 3.1 µM; in [1] (setting [16]), 3.24 µM. For the same molecule, the IC50 is 3.1 ± 0.4 µM in assay [1] (Homo sapiens, MDA-MB-468, Mammary Gland Adenocarcinoma (Table 3, with spread), read-out: IC50); 3.5 ± 0.4 µM in assay [6]; 3 to 5 µM in [7] (Homo sapiens, XTT assay, read-out: IC50 values in most tested cancer cell lines); 3.6 ± 0.6 µM in [8]; 4.9 ± 1 µM in assay [9]; 4 ± 0.7 µM in [10]. Also, the IC50 in [11] is 4.5 ± 0.7 µM; in assay [13], 3.6 ± 0.7 µM; in assay [14], 3.1 ± 0.2 µM. For the same molecule, the “IC50 compared with that” value in assay [1] (MDA-MB-468) is “significantly lower”. The “difference between the IC50 values in normal and cancer cells” value in assay [7] (MCF10A versus cancer cell lines) was “approximately 10 fold”. Besides, the “RAD51 multimerization (in words)” value at RAD51 is listed as “capable of disrupting RAD51 multimerization; also recorded: can inhibit RAD51 multimerization; also recorded: can disrupt RAD51 multimer formation in vitro; also recorded: inhibits RAD51 multimerization”. The “HR frequency / HR repair (in words)” value in assay [12] is “impairing homologous recombination repair; also recorded: significantly reduced; also recorded: greater depression of HR repair activity; also recorded: inhibit HR repair in cells; also recorded: dose dependently inhibits HR repair”.

On to `O=S(=O)(Cc1ccccc1)N1Cc2ccccc2[C@H]1c1c[nH]c2ccccc12` [IBR121, (S)-3-(2-(benzylsulfonyl)isoindolin-1-yl)-1H-indole], for which the IC50 in [1] (setting [15]) is greater than 12 µM; in assay [1] (setting [16]) it was no less than 12 µM.

The pIC50 is −log10 of the IC50, conventionally taken in molar units. Read a high pIC50 as a low IC50. Turning to `COc1cc2c(C3c4ccccc4C=CN3S(=O)(=O)Cc3ccccc3)c[nH]c2cn1` (centres unmarked) [IBR122], the “IC50 compared with that” value in assay [1] (MDA-MB-468) is on record as “slightly lower”. Further, the IC50 in [1] (setting [17]) came out at 12.7 µM. The molecule further showed a negative-log IC50 (pIC50) in assay [1] (setting [18]) of 4.90.

As to `O=S(=O)(Cc1ccccc1)N1C=Cc2ccccc2C1c1c[nH]c2ncccc12` (centres unmarked) [IBR124], in assay [1] (MDA-MB-468), the “IC50 compared with that” value is recorded as “significantly lower”. The IC50 in [1] (setting [17]) amounted to 6.2 µM. This molecule also had a negative logarithm of the IC50 (pIC50) in assay [1] (setting [18]) of 5.21.
